Assay results published in ChEMBL document CHEMBL2010711, “Synthesis and comparative evaluation of 4-oxa- and 4-aza-podophyllotoxins as antiproliferative microtubule destabilizing agents” (Bioorg Med Chem Lett, 2012).
Calls of active or inactive are those of the source.

How the values were obtained:
[1] = system: Paracentrotus lividus; experiment: Antimitotic activity against Paracentrotus lividus embryo assessed as cleavage alteration at 2 fold less effective threshold concentration after 2.5 to 6 hrs; assay type: functional, organism-based
[2] = system: U-251; experiment: Cytotoxicity against human U251 cells after 48 hrs by trypan blue dye exclusion assay; assay type: functional; details: U-251, 48 h
[3] = system: OVCAR-3; experiment: Cytotoxicity against human OVCAR3 cells after 48 hrs by trypan blue dye exclusion assay; assay type: functional; details: OVCAR-3, 48 h
[4] = Cytotoxicity against human Hs 578T cells after 48 hrs by trypan blue dye exclusion assay; assay type: functional
[5] = system: NCI-H322M; experiment: Cytotoxicity against human NCI-H322M cells after 48 hrs by trypan blue dye exclusion assay; assay type: functional
[6] = system: SR; experiment: Cytotoxicity against human SR cells after 48 hrs by trypan blue dye exclusion assay; assay type: functional
[7] = system: NCI-H460; experiment: Cytotoxicity against human NCI-H460 cells after 48 hrs by trypan blue dye exclusion assay; assay type: functional; details: NCI-H460, 48 h
[8] = system: NCI-H23; experiment: Cytotoxicity against human NCI-H23 cells after 48 hrs by trypan blue dye exclusion assay; assay type: functional; details: NCI-H23, 48 h
[9] = system: SF-268; experiment: Cytotoxicity against human SF268 cells after 48 hrs by trypan blue dye exclusion assay; assay type: functional; details: SF-268, 48 h
[10] = system: NCI-H226; experiment: Cytotoxicity against human NCI-H226 cells after 48 hrs by trypan blue dye exclusion assay; assay type: functional; details: NCI-H226, 48 h
[11] = system: OVCAR-4; experiment: Cytotoxicity against human OVCAR4 cells after 48 hrs by trypan blue dye exclusion assay; assay type: functional; details: OVCAR-4, 48 h
[12] = system: COLO 205; experiment: Cytotoxicity against human COLO205 cells after 48 hrs by trypan blue dye exclusion assay; assay type: functional; details: COLO 205, 48 h
[13] = system: SF-295; experiment: Cytotoxicity against human SF295 cells after 48 hrs by trypan blue dye exclusion assay; assay type: functional; details: SF-295, 48 h
[14] = system: BT-549; experiment: Cytotoxicity against human BT549 cells after 48 hrs by trypan blue dye exclusion assay; assay type: functional; details: BT-549, 48 h
[15] = system: OVCAR-8; experiment: Cytotoxicity against human OVCAR8 cells after 48 hrs by trypan blue dye exclusion assay; assay type: functional; details: OVCAR-8, 48 h
[16] = system: HL-60(TB); experiment: Cytotoxicity against human HL-60(TB) cells after 48 hrs by trypan blue dye exclusion assay; assay type: functional; details: HL-60, 48 h
[17] = system: SF-539; experiment: Cytotoxicity against human SF539 cells after 48 hrs by trypan blue dye exclusion assay; assay type: functional; details: SF-539, 48 h
[18] = system: Paracentrotus lividus; experiment: Antimitotic activity against Paracentrotus lividus embryo assessed as concentration required to cause 100% cleavage arrest after 2.5 to 6 hrs; assay type: functional
[19] = system: RPMI-8226; experiment: Cytotoxicity against human RPMI8226 cells after 48 hrs by trypan blue dye exclusion assay; assay type: functional; details: RPMI-8226, 48 h
[20] = system: MOLT-4; experiment: Cytotoxicity against human MOLT4 cells after 48 hrs by trypan blue dye exclusion assay; assay type: functional; details: MOLT-4, 48 h
[21] = system: SK-MEL-2; experiment: Cytotoxicity against human SK-MEL-2 cells after 48 hrs by trypan blue dye exclusion assay; assay type: functional; details: SK-MEL-2, 48 h
[22] = system: HT-29; experiment: Cytotoxicity against human HT-29 cells after 48 hrs by trypan blue dye exclusion assay; assay type: functional; details: HT-29, 48 h
[23] = system: IGROV-1; experiment: Cytotoxicity against human IGROV1 cells after 48 hrs by trypan blue dye exclusion assay; assay type: functional; details: IGROV-1, 48 h
[24] = system: SN12C; experiment: Cytotoxicity against human SN12C cells after 48 hrs by trypan blue dye exclusion assay; assay type: functional
[25] = system: UACC-62; experiment: Cytotoxicity against human UACC62 cells after 48 hrs by trypan blue dye exclusion assay; assay type: functional; details: UACC-62, 48 h
[26] = system: HCT-15; experiment: Cytotoxicity against human HCT15 cells after 48 hrs by trypan blue dye exclusion assay; assay type: functional; details: HCT-15, 48 h
[27] = system: CCRF-CEM; experiment: Cytotoxicity against human CCRF-CEM cells after 48 hrs by trypan blue dye exclusion assay; assay type: functional
[28] = system: UO-31; experiment: Cytotoxicity against human UO31 cells after 48 hrs by trypan blue dye exclusion assay; assay type: functional; details: UO-31, 48 h
[29] = system: RXF 393; experiment: Cytotoxicity against human RXF393 cells after 48 hrs by trypan blue dye exclusion assay; assay type: functional; details: RXF 393, 48 h
[30] = system: Paracentrotus lividus; experiment: Microtubule destabilizing activity in Paracentrotus lividus embryo assessed as concentration required to cause 100% embryo spinning after 15 mins to 20 hrs; assay type: functional
[31] = system: SK-MEL-5; experiment: Cytotoxicity against human SK-MEL-5 cells after 48 hrs by trypan blue dye exclusion assay; assay type: functional; details: SK-MEL-5, 48 h
[32] = system: A498; experiment: Cytotoxicity against human A498 cells after 48 hrs by trypan blue dye exclusion assay; assay type: functional; details: A498, 48 h
[33] = system: SK-MEL-28; experiment: Cytotoxicity against human SK-MEL-28 cells after 48 hrs by trypan blue dye exclusion assay; assay type: functional; details: SK-MEL-28, 48 h
[34] = system: Paracentrotus lividus; experiment: Antimitotic activity against Paracentrotus lividus embryo assessed as cleavage arrest at 2 fold less effective threshold concentration after 2.5 to 6 hrs; assay type: functional, organism-based
[35] = system: M14; experiment: Cytotoxicity against human M14 cells after 48 hrs by trypan blue dye exclusion assay; assay type: functional; details: M14, 48 h
[36] = system: MCF7; experiment: Cytotoxicity against human MCF7 cells after 48 hrs by trypan blue dye exclusion assay; assay type: functional; details: MCF7, 48 h
[37] = system: OVCAR-5; experiment: Cytotoxicity against human OVCAR5 cells after 48 hrs by trypan blue dye exclusion assay; assay type: functional; details: OVCAR-5, 48 h
[38] = system: SNB-75; experiment: Cytotoxicity against human SNB75 cells after 48 hrs by trypan blue dye exclusion assay; assay type: functional; details: SNB-75, 48 h
[39] = system: DU-145; experiment: Cytotoxicity against human DU145 cells after 48 hrs by trypan blue dye exclusion assay; assay type: functional; details: DU-145, 48 h
[40] = system: PC-3; experiment: Cytotoxicity against human PC3 cells after 48 hrs by trypan blue dye exclusion assay; assay type: functional; details: PC-3, 48 h
[41] = system: EKVX; experiment: Cytotoxicity against human EKVX cells after 48 hrs by trypan blue dye exclusion assay; assay type: functional
[42] = system: KM12; experiment: Cytotoxicity against human KM12 cells after 48 hrs by trypan blue dye exclusion assay; assay type: functional; details: KM12, 48 h
[43] = system: CAKI-1; experiment: Cytotoxicity against human CAKI-1 cells after 48 hrs by trypan blue dye exclusion assay; assay type: functional; details: CAKI-1, 48 h
[44] = system: NCI/ADR-RES; experiment: Cytotoxicity against human NCI/ADR-RES cells after 48 hrs by trypan blue dye exclusion assay; assay type: functional
[45] = system: MDA-MB-468; experiment: Cytotoxicity against human MDA-MB-468 cells after 48 hrs by trypan blue dye exclusion assay; assay type: functional; details: MDA-MB-468, 48 h
[46] = system: Paracentrotus lividus; experiment: Microtubule destabilizing activity in Paracentrotus lividus embryo assessed as embryo spinning at 2 fold less effective threshold concentration after 15 mins to 20 hrs; assay type: functional, organism-based
[47] = system: Paracentrotus lividus; experiment: Antimitotic activity against Paracentrotus lividus embryo assessed as concentration required to cause 100% cleavage alteration after 2.5 to 6 hrs; assay type: functional
[48] = system: ACHN; experiment: Cytotoxicity against human ACHN cells after 48 hrs by trypan blue dye exclusion assay; assay type: functional
[49] = system: HCT-116; experiment: Cytotoxicity against human HCT116 cells after 48 hrs by trypan blue dye exclusion assay; assay type: functional; details: HCT-116, 48 h
[50] = system: TK-10; experiment: Cytotoxicity against human TK10 cells after 48 hrs by trypan blue dye exclusion assay; assay type: functional; details: TK-10, 48 h
[51] = system: NCI-H522; experiment: Cytotoxicity against human NCI-H522 cells after 48 hrs by trypan blue dye exclusion assay; assay type: functional; details: NCI-H522, 48 h
[52] = system: LOX IMVI; experiment: Cytotoxicity against human LOXIMVI cells after 48 hrs by trypan blue dye exclusion assay; assay type: functional
[53] = system: 786-0; experiment: Cytotoxicity against human 786-0 cells after 48 hrs by trypan blue dye exclusion assay; assay type: functional; details: 786-0, 48 h
[54] = system: MDA-MB-231; experiment: Cytotoxicity against human MDA-MB-231 cells after 48 hrs by trypan blue dye exclusion assay; assay type: functional; details: MDA-MB-231, 48 h
[55] = system: SK-OV-3; experiment: Cytotoxicity against human SKOV3 cells after 48 hrs by trypan blue dye exclusion assay; assay type: functional; details: SK-OV-3, 48 h
[56] = system: A549; experiment: Cytotoxicity against human A549 cells after 48 hrs by trypan blue dye exclusion assay; assay type: functional; details: A549, 48 h
[57] = system: SW-620; experiment: Cytotoxicity against human SW620 cells after 48 hrs by trypan blue dye exclusion assay; assay type: functional; details: SW-620, 48 h
[58] = system: HCC 2998; experiment: Cytotoxicity against human HCC2998 cells after 48 hrs by trypan blue dye exclusion assay; assay type: functional; details: HCC 2998, 48 h
[59] = system: HOP-92; experiment: Cytotoxicity against human HOP92 cells after 48 hrs by trypan blue dye exclusion assay; assay type: functional; details: HOP-92, 48 h
[60] = system: MDA-MB-435; experiment: Cytotoxicity against human MDA-MB-435 cells after 48 hrs by trypan blue dye exclusion assay; assay type: functional; details: MDA-MB-435, 48 h
[61] = system: SNB-19; experiment: Cytotoxicity against human SNB19 cells after 48 hrs by trypan blue dye exclusion assay; assay type: functional; details: SNB-19, 48 h

COc1ccc2c(c1)OC1=C(C(=O)OC1)C2c1cc(OC)c2c(c1)OCCO2 (stereo unspecified)
Activity [1]: inactive
GI50 [2]: 85.1 nM
GI50 [3]: 26.2 nM
GI50 [4]: 30.8 nM
GI50 [5]: 47.4 nM
GI50 [6]: 32.8 nM
GI50 [7]: > 100 µM
GI50 [8]: 38.2 nM
GI50 [9]: 85.1 nM
GI50 [10]: 71.2 nM
GI50 [11]: 236 nM
GI50 [12]: 30.7 nM
GI50 [13]: 31.5 nM
GI50 [14]: 131 nM
GI50 [15]: 49.5 nM
GI50 [16]: 23.2 nM
GI50 [17]: 29.3 nM
EC [18]: 50 nM
GI50 [19]: 41 nM
GI50 [20]: 81.7 nM
GI50 [21]: 48.3 nM
GI50 [22]: 38.4 nM
GI50 [23]: 86 nM
GI50 [24]: 54 nM
GI50 [25]: 39.2 nM
GI50 [26]: 47.5 nM
GI50 [27]: 31.3 nM
GI50 [28]: 71.3 nM
GI50 [29]: 18.7 nM
EC [30]: 500 nM
GI50 [31]: 32.9 nM
GI50 [32]: 23.1 nM
GI50 [33]: 51.7 nM
Activity [34]: inactive
GI50 [35]: 52.2 nM
GI50 [36]: 32.9 nM
GI50 [37]: 126 nM
GI50 [38]: 33.7 nM
GI50 [39]: 51.9 nM
GI50 [40]: 46.9 nM
GI50 [41]: 68.2 nM
GI50 [42]: 42.7 nM
GI50 [43]: 36.3 nM
GI50 [44]: 23.5 nM
GI50 [45]: 23.1 nM
Activity [46]: inactive
EC [47]: 10 nM
GI50 [48]: 171 nM
GI50 [49]: 48.3 nM
GI50 [50]: 36.5 µM
GI50 [51]: 37.3 nM
GI50 [52]: 48.5 nM
GI50 [53]: 61.4 nM
GI50 [54]: 110 nM
GI50 [55]: 33.3 nM
GI50 [56]: 52.3 nM
GI50 [57]: 36.2 nM
GI50 [58]: 75.7 nM
GI50 [59]: 41.6 nM
GI50 [60]: 19.7 nM
GI50 [61]: 50.4 nM
